The target of assay [1] is T1, ratAChE (Rattus norvegicus, UniProt P37136).
T1 construct: AChE from 5% rat cortex homogenate or human erythrocytes (Sigma Co.); from tissue; host or cells: 5% rat cortex homogenate
T1 sequence (P37136 32-614): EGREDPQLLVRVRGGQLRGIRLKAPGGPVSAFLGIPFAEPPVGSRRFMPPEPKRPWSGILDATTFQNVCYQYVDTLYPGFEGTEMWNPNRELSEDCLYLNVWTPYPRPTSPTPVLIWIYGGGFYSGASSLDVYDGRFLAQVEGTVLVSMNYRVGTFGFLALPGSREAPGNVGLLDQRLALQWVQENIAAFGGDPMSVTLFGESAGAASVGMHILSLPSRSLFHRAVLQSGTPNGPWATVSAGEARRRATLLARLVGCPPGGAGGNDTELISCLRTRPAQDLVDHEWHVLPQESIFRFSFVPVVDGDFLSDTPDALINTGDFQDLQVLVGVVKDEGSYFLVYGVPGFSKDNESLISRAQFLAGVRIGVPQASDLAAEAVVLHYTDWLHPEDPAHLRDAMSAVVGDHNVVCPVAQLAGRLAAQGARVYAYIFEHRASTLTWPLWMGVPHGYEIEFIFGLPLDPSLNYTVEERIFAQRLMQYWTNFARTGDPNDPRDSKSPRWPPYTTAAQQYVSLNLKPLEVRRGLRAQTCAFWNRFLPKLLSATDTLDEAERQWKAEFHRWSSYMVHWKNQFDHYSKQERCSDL
The assay is described as follows: biochemical. The settings on record: for SI: Selectivity Index = IC50 (BuChE)/IC50 (AChE), rat enzymes; for IC50: from 5% rat cortex homogenate, read-out: IC50 ± SD ratAChE.
Experimental: (§1) The AChE and BuChE inhibitory activities of the synthesised compounds were evaluated using the Ellman assay with slight modification. AChE from 5% rat cortex homogenate or human erythrocytes (Sigma Co.). BuChE from rat serum or human serum (Sigma Co.).

The target in assay [2] is T2, ratBuChE (Rattus norvegicus, UniProt Q9JKC1).
T2 construct: BuChE from rat serum or human serum (Sigma Co.); from tissue; host or cells: rat serum
T2 sequence (Q9JKC1 24-597): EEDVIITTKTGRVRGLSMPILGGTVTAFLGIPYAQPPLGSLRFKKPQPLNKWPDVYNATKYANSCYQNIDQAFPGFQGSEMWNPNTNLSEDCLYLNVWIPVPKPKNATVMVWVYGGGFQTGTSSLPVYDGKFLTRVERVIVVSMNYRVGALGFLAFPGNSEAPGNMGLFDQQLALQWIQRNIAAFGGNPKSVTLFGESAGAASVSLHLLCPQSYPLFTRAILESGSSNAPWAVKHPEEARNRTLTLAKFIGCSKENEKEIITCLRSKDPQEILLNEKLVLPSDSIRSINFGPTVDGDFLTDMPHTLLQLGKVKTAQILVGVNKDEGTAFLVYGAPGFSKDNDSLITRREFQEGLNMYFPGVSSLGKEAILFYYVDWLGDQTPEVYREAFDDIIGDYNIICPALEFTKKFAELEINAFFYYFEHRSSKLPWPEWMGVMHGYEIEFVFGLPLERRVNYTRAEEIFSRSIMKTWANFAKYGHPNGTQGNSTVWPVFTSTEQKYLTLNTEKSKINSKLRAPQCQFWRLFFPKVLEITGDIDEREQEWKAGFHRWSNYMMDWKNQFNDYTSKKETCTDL
As to the kind of experiment: ratBuChE inhibition, modified Ellman's method. The class given is biochemical. A general note: In Ellman's method for cholinesterases, released thiocholine reacts with DTNB.
Experimental: as §1

The conditions of assay [3]: Trolox as standard.
Experimental: The skeleton compounds naringenin and apigenin were also evaluated for comparison purposes, and vitamin E analogue Trolox was used as a standard.
The antioxidant potency of target compounds was tested using an oxygen radical absorbance capacity fluorescein (ORAC-FL) assay.

As a reminder, the IC50 is the concentration needed to halve the response being measured.

`O=c1cc(-c2ccc(OCCCN3CCC(c4ccccc4)CC3)cc2)oc2cc(OCCCN3CCC(c4ccccc4)CC3)cc(O)c12` [Compound 10d, 5-hydroxy-7–(3-(4-phenylpiperidin-1-yl)propoxy)-2–(4-(3–(4-phenylpiperidin-1-yl)propoxy)phenyl)-4H-chromen-4-one] had an SI in assay [1] of 2.4. Also, the IC50 came to 6.4 ± 0.22 µM in assay [1] and 15.1 ± 0.49 µM in assay [2]. For the same molecule, the ORAC in assay [3] was 1.1 ± 0.02 μM of Trolox equivalent/μM of tested compound.

As to `CCN(CCCCCCOc1cc(O)c2c(c1)OC(c1ccc(O)cc1)CC2=O)Cc1ccccc1` (stereo not drawn) [Compound 5h, 7-((6-(benzyl(ethyl)amino)hexyl)oxy)-5-hydroxy-2–(4-hydroxyphenyl)chroman-4-one], in assay [1], the SI turned out to be 4.7 and the IC50 came to 3.3 ± 0.09 µM. This molecule also returned a half-maximal inhibitory concentration (IC50) in assay [2] of 15.5 ± 0.52 µM. Further, the ORAC in assay [3] was 2.3 ± 0.03 μM of Trolox equivalent/μM of tested compound.

For `O=c1cc(-c2ccc(OCCCCCCN3CCC(c4ccccc4)CC3)cc2)oc2cc(OCCCCCCN3CCC(c4ccccc4)CC3)cc(O)c12` [Compound 10t, 5-hydroxy-7-((6–(4-phenylpiperidin-1-yl)hexyl)oxy)-2–(4-((6–(4-phenylpiperidin-1-yl)hexyl)oxy)phenyl)-4H-chromen-4-one], in assay [1], the SI is reported as 3.3 and the IC50 is 5.9 ± 0.37 µM. The molecule also gave a concentration for half-maximal inhibition (IC50) in assay [2] of 19.3 ± 0.67 µM. Moreover, in assay [3], the ORAC is listed as 1.0 ± 0.02 μM of Trolox equivalent/μM of tested compound.

As to `CCN(CCCCOc1cc(O)c2c(c1)OC(c1ccc(O)cc1)CC2=O)Cc1ccccc1OC` (stereo not drawn) [Compound 5d, 7–(4-(ethyl(2-methoxybenzyl)amino)butoxy)-5-hydroxy-2–(4-hydroxyphenyl)chroman-4-one], in assay [1], the SI stood at 9.1 and the 50% inhibitory concentration (IC50) was determined as 2 ± 0.46 µM. Besides, the IC50 in assay [2] worked out at 18.1 ± 0.56 µM. The ORAC in assay [3] is 2.2 ± 0.02 μM of Trolox equivalent/μM of tested compound.

As for `O=c1cc(-c2ccc(OCCCCCCN3CCc4ccccc4C3)cc2)oc2cc(OCCCCCCN3CCc4ccccc4C3)cc(O)c12` [Compound 10q, 7-((6–(3,4-dihydroisoquinolin-2(1H)-yl)hexyl)oxy)-2–(4-((6–(3,4-dihydroisoquinolin-2(1H)-yl)hexyl)oxy)phenyl)-5-hydroxy-4H-chromen-4-one], in assay [1], the SI is given as 2.9 and the IC50 is 4.2 ± 0.15 µM. In assay [2], this molecule showed an IC50 of 12.2 ± 0.28 µM. For the same molecule, in assay [3], the ORAC is 1.0 ± 0.02 μM of Trolox equivalent/μM of tested compound.

With `CCN(CCCCOc1cc(O)c2c(c1)OC(c1ccc(O)cc1)CC2=O)Cc1ccccc1` (stereo not drawn) [Compound 5c, 7–(4-(benzyl(ethyl)amino)butoxy)-5-hydroxy-2–(4-hydroxyphenyl)chroman-4-one], in assay [1], the SI was found to be 5.8 and the IC50 turned out to be 3.9 ± 0.44 µM. This molecule had an IC50 in assay [2] of 22.6 ± 0.23 µM. Further, the ORAC in assay [3] is 2.3 ± 0.02 μM of Trolox equivalent/μM of tested compound.

As for `CC1CC(C)CN(CCCCCCOc2ccc(-c3cc(=O)c4c(O)cc(OCCCCCCN5CC(C)CC(C)C5)cc4o3)cc2)C1` (stereo not drawn) [Compound 10v, 7-((6–(3,5-dimethylpiperidin-1-yl)hexyl)oxy)-2–(4-((6–(3,5-dimethylpiperidin-1-yl)hexyl)oxy)phenyl)-5-hydroxy-4H-chromen-4-one], in assay [1], the SI stood at 1.8 and the IC50 was determined as 8.1 ± 0.49 µM. In addition, the IC50 in assay [2] is 14.8 ± 0.29 µM. Also, the ORAC in assay [3] is listed as 1.3 ± 0.03 μM of Trolox equivalent/μM of tested compound.

Turning to `CCN(CCCCOc1ccc(C2CC(=O)c3c(O)cc(OCCCCN(CC)Cc4ccccc4)cc3O2)cc1)Cc1ccccc1` (stereo not drawn) [Compound 7g], in assay [1], the SI is given as 11.2 and the IC50 amounted to 1.4 ± 0.08 µM. Besides, the IC50 in assay [2] came out at 15.7 ± 0.29 µM. Moreover, the ORAC in assay [3] is listed as 1.2 ± 0.04 μM of Trolox equivalent/μM of tested compound.

`CC1CC(C)CN(CCCOc2ccc(-c3cc(=O)c4c(O)cc(OCCCN5CC(C)CC(C)C5)cc4o3)cc2)C1` (stereo not drawn) [Compound 10f, 7–(3-(3,5-dimethylpiperidin-1-yl)propoxy)-2–(4-(3–(3,5-dimethylpiperidin-1-yl)propoxy)phenyl)-5-hydroxy-4H-chromen-4-one]: in assay [1], the SI came to 1.9 and the 50% inhibitory concentration (IC50) came out at 8.6 ± 0.33 µM. In assay [2], half-maximal inhibition (IC50) was put at 16.7 ± 0.52 µM. Besides, the ORAC in assay [3] is 1.0 ± 0.04 μM of Trolox equivalent/μM of tested compound.

`CCN(CCCCCCCCCCOc1cc(O)c2c(c1)OC(c1ccc(O)cc1)CC2=O)Cc1ccccc1` (stereo not drawn) [Compound 5i, 7-((10-(benzyl(ethyl)amino)decyl)oxy)-5-hydroxy-2–(4-hydroxyphenyl)chroman-4-one]: in assay [1], the SI is on record as 3.0 and the IC50 stood at 4.9 ± 0.16 µM. The molecule also came in with a 50% inhibitory concentration (IC50) in assay [2] of 14.7 ± 0.62 µM. For the same molecule, the ORAC in assay [3] is recorded as 2.1 ± 0.04 μM of Trolox equivalent/μM of tested compound.

Take `CC1CC(C)CN(CCCCCOc2ccc(-c3cc(=O)c4c(O)cc(OCCCCCN5CC(C)CC(C)C5)cc4o3)cc2)C1` (stereo not drawn) [Compound 10p, 7-((5–(3,5-dimethylpiperidin-1-yl)pentyl)oxy)-2–(4-((5–(3,5-dimethylpiperidin-1-yl)pentyl)oxy)phenyl)-5-hydroxy-4H-chromen-4-one]: the SI in assay [1] stood at 2.2. Besides, the figures for the IC50 in assay [1] and in assay [2] were 6.2 ± 0.54 µM and 13.8 ± 0.37 µM, respectively. In addition, the ORAC in assay [3] is listed as 1.1 ± 0.02 μM of Trolox equivalent/μM of tested compound.

As to `O=c1cc(-c2ccc(OCCCN3CCc4ccccc4C3)cc2)oc2cc(OCCCN3CCc4ccccc4C3)cc(O)c12` [Compound 10a, 7–(3-(3,4-dihydroisoquinolin-2(1H)-yl)propoxy)-2–(4-(3–(3,4-dihydroisoquinolin-2(1H)-yl)propoxy)phenyl)-5-hydroxy-4H-chromen-4-one], the SI in assay [1] is reported as 2.1. Further, the IC50 in assay [1] was found to be 8.1 ± 0.27 µM; in assay [2] it was 16.8 ± 0.36 µM. In addition, in assay [3], the ORAC is recorded as 1.1 ± 0.01 μM of Trolox equivalent/μM of tested compound.

In the case of `O=c1cc(-c2ccc(OCCCCCCN3CCC(Cc4ccccc4)CC3)cc2)oc2cc(OCCCCCCN3CCC(Cc4ccccc4)CC3)cc(O)c12` [Compound 10s, 7-((6–(4-benzylpiperidin-1-yl)hexyl)oxy)-2–(4-((6–(4-benzylpiperidin-1-yl)hexyl)oxy)phenyl)-5-hydroxy-4H-chromen-4-one], in assay [1], the SI worked out at 6.5 and the IC50 was determined as 2.6 ± 0.33 µM. Besides, the IC50 in assay [2] stood at 16.9 ± 0.54 µM. In addition, the ORAC in assay [3] is recorded as 1.1 ± 0.03 μM of Trolox equivalent/μM of tested compound.

`O=C1CC(c2ccc(OCCCCN3CCN(Cc4ccccc4)CC3)cc2)Oc2cc(OCCCCN3CCN(Cc4ccccc4)CC3)cc(O)c21` (stereo not drawn) [Compound 7i, 7–(4-(4-benzylpiperazin-1-yl)butoxy)-2–(4–(4-(4-benzylpiperazin-1-yl)butoxy)phenyl)-5-hydroxychroman-4-one]: the SI in assay [1] is 2.0. The half-inhibitory concentration (IC50) in assay [1] came to 6.1 ± 0.21 µM; in assay [2], 12.3 ± 0.16 µM. The ORAC in assay [3] was 1.4 ± 0.03 μM of Trolox equivalent/μM of tested compound.

For `O=C1CC(c2ccc(OCCCCN3CCc4ccccc4C3)cc2)Oc2cc(OCCCCN3CCc4ccccc4C3)cc(O)c21` (stereo not drawn) [Compound 7f, 7–(4-(3,4-dihydroisoquinolin-2(1H)-yl)butoxy)-2–(4-(4–(3,4-dihydroisoquinolin-2(1H)-yl)butoxy)phenyl)-5-hydroxychroman-4-one], in assay [1], the SI is 3.8 and the half-maximal inhibitory concentration (IC50) is 5.4 ± 0.16 µM. This molecule yielded an IC50 in assay [2] of 20.7 ± 0.55 µM. Also, in assay [3], the ORAC is 1.1 ± 0.03 μM of Trolox equivalent/μM of tested compound.

`O=c1cc(-c2ccc(OCCCCCN3CCC(Cc4ccccc4)CC3)cc2)oc2cc(OCCCCCN3CCC(Cc4ccccc4)CC3)cc(O)c12` [Compound 10m, 7-((5–(4-benzylpiperidin-1-yl)pentyl)oxy)-2–(4-((5–(4-benzylpiperidin-1-yl)pentyl)oxy)phenyl)-5-hydroxy-4H-chromen-4-one]: in assay [1], the SI turned out to be 12.8 and the IC50 stood at 1.3 ± 0.08 µM. Moreover, in assay [2], the IC50 was 16.6 ± 0.27 µM. In assay [3], the ORAC is reported as 1.2 ± 0.02 μM of Trolox equivalent/μM of tested compound.

Turning to `O=c1cc(-c2ccc(OCCCCN3CCC(Cc4ccccc4)CC3)cc2)oc2cc(OCCCCN3CCC(Cc4ccccc4)CC3)cc(O)c12` [Compound 10j, 7–(4-(4-Benzylpiperidin-1-yl)butoxy)-2–(4–(4-(4-benzylpiperidin-1-yl)butoxy)phenyl)-5-hydroxy-4H-chromen-4-one], in assay [1], the SI stood at 8.7 and the IC50 stood at 1.8 ± 0.04 µM. The same molecule gave an IC50 in assay [2] of 15.7 ± 0.24 µM. For the same molecule, the ORAC in assay [3] is given as 1.2 ± 0.03 μM of Trolox equivalent/μM of tested compound.

For `CCN(CCCOc1ccc(-c2cc(=O)c3c(O)cc(OCCCN(CC)Cc4ccccc4)cc3o2)cc1)Cc1ccccc1` [Compound 10b, 7–(3-(benzyl(ethyl)amino)propoxy)-2–(4-(3-(benzyl(ethyl)amino)propoxy)phenyl)-5-hydroxy-4H-chromen-4-one], the SI in assay [1] was determined as 4.3. For the same molecule, the IC50 was found to be 4.3 ± 0.38 µM in assay [1] and 18.6 ± 0.24 µM in assay [2]. Besides, the ORAC in assay [3] is 1.0 ± 0.04 μM of Trolox equivalent/μM of tested compound.

These data come from PMC8881077 (Journal of Enzyme Inhibition and Medicinal Chemistry, 2022).
